Measurements: patent US8414938B2, “Schisandrae fructus extracts for inhibition or prevention of H1N1 influenza virus infection and its application thereof” (National Defense Medical Center, priority 2011, dated 2013)
≈ marks a conversion by molar mass, not a printed value. Where two headings read alike, the source gives them in different places.

Legend:
[1] = system: influenza virus H1N1; test: organism not typed; assay type: cell-based; conditions: for MIC: read-out: MIC, H1N1
[2] = system: MDCK cells; conditions: dog
[3] = system: MDCK cells; test: MTT cell survival of MDCK cells treated with sample alone (D group, pharmacotoxicity)
[4] = 6.25 μg/ml, compound and H1N1 at the same time, MDCK (Table 10)
[5] = 10 μg/ml, compound and H1N1 0.01 MOI at the same time, MDCK, 48 hrs (Table 9)
[6] = 25 μg/ml, compound and H1N1 at the same time, MDCK (Table 10)
[7] = 50 μg/ml, compound and H1N1 0.01 MOI at the same time, MDCK, 48 hrs (Table 9)
[8] = 50 μg/ml, compound and H1N1 at the same time, MDCK (Table 10)
[9] = 75 μg/ml, compound and H1N1 at the same time, MDCK (Table 10)
[10] = 100 μg/ml, compound and H1N1 at the same time, MDCK (Table 10)
[11] = 12.5 μg/ml, compound and H1N1 at the same time, MDCK (Table 10)
[12] = influenza virus H1N1, MDCK cells, MTT

COc1cc2c(c(OC)c1OC)-c1c(cc3c(c1OC)OCO3)C[C@H](C)[C@@](C)(O)[C@H]2OC(=O)c1ccccc1 (atropisomer, axis not shown) [Benzoylgomisin P]
cell survival ratio, D + V [1, 4]: ++ (>50% but ≦75%)
cell survival ratio, D + V [1, 5]: +++ (>75% but ≦100%)
cell survival ratio, D + V [1, 6]: ++++ (>100%)
cell survival ratio, D + V [1, 7]: ++++ (>100%)
cell survival ratio, D + V [1, 8]: ++++ (>100%)
cell survival ratio, D + V [1, 9]: ++++ (>100%)
cell survival ratio, D + V [1, 10]: ++++ (>100%)
MIC [1]: 12.5 µg/mL (≈ 23.3 µM)
pharmaceutical toxicity / cytotoxicity [2]: more than 100 μg/ml
cell survival ratio, D ([3]; 12.5 μg/ml): ++++ (key: +/−: cell survival ratio ≦25%; +: >25% but ≦50%; ++: >50% but ≦75%; +++: >75% but ≦100%; ++++: >100%)

C/C=C(\C)C(=O)O[C@H]1c2cc(OC)c(OC)c(OC)c2-c2c(cc3c(c2OC)OCO3)C[C@H](C)[C@@]1(C)O (atropisomer, axis not shown) [Tigloylgomisin P]
cell survival ratio, D + V [1, 4]: +/− (cell survival ratio of ≦25%)
cell survival ratio, D + V [1, 5]: +/− (cell survival ratio of ≦25%)
cell survival ratio, D + V [1, 11]: +/− (cell survival ratio of ≦25%)
cell survival ratio, D + V [1, 6]: + (>25% but ≦50%)
cell survival ratio, D + V [1, 7]: +++ (>75% but ≦100%)
cell survival ratio, D + V [1, 8]: ++++ (>100%)
cell survival ratio, D + V [1, 9]: ++++ (>100%)
cell survival ratio, D + V [1, 10]: ++++ (>100%)
MIC, H1N1 [1, 12]: 50.0 µg/mL (≈ 97.2 µM)
MIC [1, 12]: 50 µg/mL (≈ 97.2 µM)
pharmaceutical toxicity / cytotoxicity [2]: more than 100 μg/ml

COc1cc([C@@H]2c3cc(OC)c(O)cc3C(=O)[C@H](C)[C@H]2C)ccc1O [Epiwulignan A1]
cell survival ratio, D + V [1, 4]: + (>25% but ≦50%)
cell survival ratio, D + V [1, 5]: + (>25% but ≦50%)
cell survival ratio, D + V [1, 6]: +++ (>75% but ≦100%)
cell survival ratio, D + V [1, 7]: ++++ (>100%)
cell survival ratio, D + V [1, 8]: ++++ (>100%)
cell survival ratio, D + V [1, 9]: ++++ (>100%)
cell survival ratio, D + V [1, 10]: ++++ (>100%)
MIC, H1N1 [1, 12]: 25.0 µg/mL (≈ 73 µM)
MIC [1, 12]: 25 µg/mL (≈ 73 µM)
pharmaceutical toxicity / cytotoxicity [2]: more than 100 μg/ml
cell survival ratio, D ([3]; 12.5 μg/ml): ++++ (key: +/−: cell survival ratio ≦25%; +: >25% but ≦50%; ++: >50% but ≦75%; +++: >75% but ≦100%; ++++: >100%)

NC(=O)c1ncn([C@@H]2O[C@H](CO)[C@@H](O)[C@H]2O)n1 [Ribavirin, ribavirin, reference compound]
MIC [1]: 3.12 µg/mL (≈ 12.8 µM)

COc1cc2c(cc1O)C(=O)[C@@H](C)[C@@H](C)[C@@H]2c1ccc(OC)c(OC)c1 [Schisandrone]
cell survival ratio, D + V [1, 4]: + (>25% but ≦50%)
cell survival ratio, D + V [1, 5]: ++ (>50% but ≦75%)
cell survival ratio, D + V [1, 11]: ++++ (>100%)
cell survival ratio, D + V [1, 6]: ++++ (>100%)
cell survival ratio, D + V [1, 7]: ++++ (>100%)
cell survival ratio, D + V [1, 8]: ++++ (>100%)
cell survival ratio, D + V [1, 9]: ++++ (>100%)
cell survival ratio, D + V [1, 10]: +/− (cell survival ratio of ≦25%)
MIC [1, 12]: 12.5 µg/mL (≈ 35.1 µM)
pharmaceutical toxicity / cytotoxicity [2]: 100 µg/mL
cell survival ratio, D ([3]; 6.25 μg/ml): ++++ (key: +/−: cell survival ratio ≦25%; +: >25% but ≦50%; ++: >50% but ≦75%; +++: >75% but ≦100%; ++++: >100%)

COc1cc([C@@H]2c3cc(OC)c(O)cc3C(=O)[C@@H](C)[C@H]2C)ccc1O [Wulignan A1]
cell survival ratio, D + V [1, 4]: ++ (>50% but ≦75%)
cell survival ratio, D + V [1, 5]: ++ (>50% but ≦75%)
cell survival ratio, D + V [1, 11]: +++ (>75% but ≦100%)
cell survival ratio, D + V [1, 6]: ++++ (>100%)
cell survival ratio, D + V [1, 7]: ++++ (>100%)
cell survival ratio, D + V [1, 8]: ++++ (>100%)
cell survival ratio, D + V [1, 9]: ++++ (>100%)
cell survival ratio, D + V [1, 10]: ++++ (>100%)
MIC [1]: 12.5 µg/mL (≈ 36.5 µM)
pharmaceutical toxicity / cytotoxicity [2]: more than 100 μg/ml
cell survival ratio, D ([3]; 12.5 μg/ml): ++++ (key: +/−: cell survival ratio ≦25%; +: >25% but ≦50%; ++: >50% but ≦75%; +++: >75% but ≦100%; ++++: >100%)
